According to ChEMBL document CHEMBL1201861, “Genomics of Drug Sensitity in Cancer screening data, Wellcome Trust Sanger Institute”:

What was measured:
Assay in all cases: cells
KLE = assay type: functional, cell-based; settings: Homo sapiens;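 further: growth inhibition of human KLE cells, read out with a cell viability assay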
Description: SANGER: Inhibition of human KLE cell growth in a cell viability assay.

J-RT3-T3-5 = assay type: functional, cell-based, Homo sapiens; settings: Homo sapiens, J-RT3-T3-5;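 further: cell viability assay measuring growth inhibition of human J-RT3-T3-5 cells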
Description: SANGER: Inhibition of human J-RT3-T3-5 cell growth in a cell viability assay.

D-502MG = assay type: functional, cell-based, Homo sapiens; settings: Homo sapiens, D-502MG
Description: SANGER: Inhibition of human D-502MG cell growth in a cell viability assay.

LB2241-RCC = assay type: functional, cell-based, Homo sapiens; settings: Homo sapiens, LB2241-RCC;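 further: cell viability assay measuring how strongly the cultured human renal carcinoma line is prevented from growing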
Description: SANGER: Inhibition of human LB2241-RCC cell growth in a cell viability assay.

DEL = assay type: functional, cell-based, Homo sapiens; settings: Homo sapiens, DEL;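 further: growth inhibition of the human DEL cell line, read out with a cell viability assay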
Description: SANGER: Inhibition of human DEL cell growth in a cell viability assay.

MZ7-mel = assay type: functional, cell-based, Homo sapiens; settings: Homo sapiens, MZ7-mel;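 further: growth inhibition of human MZ7-mel cells, measured by a cell viability assay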
Description: SANGER: Inhibition of human MZ7-mel cell growth in a cell viability assay.

TE-5 = assay type: functional, cell-based, Homo sapiens; settings: Homo sapiens, TE-5;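 further: inhibition of cell growth, read out by a cell viability assay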
Description: SANGER: Inhibition of human TE-5 cell growth in a cell viability assay.

697 = assay type: functional, cell-based, Homo sapiens; settings: Homo sapiens
Description: SANGER: Inhibition of human 697 cell growth in a cell viability assay.

SHP77 = assay type: functional, cell-based, Homo sapiens, SHP-77; settings: Homo sapiens, SHP77;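 further: growth inhibition of human SHP-77 cells measured by a cell viability assay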
Description: SANGER: Inhibition of human SHP-77 cell growth in a cell viability assay.

KNS-42 = assay type: functional, cell-based; settings: Homo sapiens;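 further: growth inhibition of KNS-42 cells, read out with a cell viability assay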
Description: SANGER: Inhibition of human KNS-42 cell growth in a cell viability assay.

CCRF-CEM = assay type: functional, cell-based, Homo sapiens; settings: Homo sapiens, CCRF-CEM;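 further: inhibition of CCRF-CEM cell growth, measured by a cell viability assay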
Description: SANGER: Inhibition of human CCRF-CEM cell growth in a cell viability assay.

NCI-H1304 = assay type: functional, cell-based, Homo sapiens; settings: Homo sapiens, NCI-H1304;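 further: growth inhibition of the cancer cell line, measured in a cell viability assay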
Description: SANGER: Inhibition of human NCI-H1304 cell growth in a cell viability assay.

SNU-C2B = assay type: functional, cell-based; settings: Homo sapiens;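 further: cell viability readout used to measure compound-driven suppression of SNU-C2B cell proliferation, IC50 marking half-maximal growth inhibition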
Description: SANGER: Inhibition of human SNU-C2B cell growth in a cell viability assay.

NCI-H2171 = assay type: functional, cell-based, Homo sapiens; settings: Homo sapiens, NCI-H2171;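 further: growth inhibition of human NCI-H2171 cells, read out by a cell viability assay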
Description: SANGER: Inhibition of human NCI-H2171 cell growth in a cell viability assay.

ES8 = assay type: functional, cell-based, Homo sapiens; settings: Homo sapiens, ES8;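 further: growth inhibition of human ES8 cells, read out with a cell viability assay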
Description: SANGER: Inhibition of human ES8 cell growth in a cell viability assay.

SCC-15 = assay type: functional, cell-based, Homo sapiens; settings: Homo sapiens, SCC-15;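 further: growth inhibition of SCC-15 cells, read out with a cell viability assay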
Description: SANGER: Inhibition of human SCC-15 cell growth in a cell viability assay.

LS-513 = assay type: functional, cell-based, Homo sapiens; settings: Homo sapiens, LS-513
Description: SANGER: Inhibition of human LS-513 cell growth in a cell viability assay.

L-428 = assay type: functional, cell-based, Homo sapiens; settings: Homo sapiens, L-428
Description: SANGER: Inhibition of human L-428 cell growth in a cell viability assay.

SW872 = assay type: functional, cell-based, Homo sapiens; settings: Homo sapiens, SW872;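 further: growth inhibition of SW872 cells, read out by a viability assay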
Description: SANGER: Inhibition of human SW872 cell growth in a cell viability assay.

OVCAR-4 = assay type: functional, cell-based, Homo sapiens; settings: Homo sapiens, OVCAR-4;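 further: growth inhibition of human OVCAR-4 cells, measured with a cell viability assay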
Description: SANGER: Inhibition of human OVCAR-4 cell growth in a cell viability assay.

SK-UT-1 = assay type: functional, cell-based, Homo sapiens; settings: Homo sapiens, SK-UT-1;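 further: growth inhibition of SK-UT-1 cells, measured by a cell viability assay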
Description: SANGER: Inhibition of human SK-UT-1 cell growth in a cell viability assay.

SW982 = assay type: functional, cell-based; settings: Homo sapiens;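 further: growth inhibition of SW982 cells, read out with a cell viability assay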
Description: SANGER: Inhibition of human SW982 cell growth in a cell viability assay.

KARPAS-45 = assay type: functional, cell-based, Homo sapiens; settings: Homo sapiens, KARPAS-45;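 further: inhibition of cell line growth, read out through a viability assay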
Description: SANGER: Inhibition of human KARPAS-45 cell growth in a cell viability assay.

KGN = assay type: functional, cell-based, Homo sapiens; settings: Homo sapiens, KGN;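 further: growth inhibition of KGN cells, read out with a cell viability assay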
Description: SANGER: Inhibition of human KGN cell growth in a cell viability assay.

COLO-829 = assay type: functional, cell-based, Homo sapiens; settings: Homo sapiens, COLO-829
Description: SANGER: Inhibition of human COLO-829 cell growth in a cell viability assay.

COLO-684 = assay type: functional, cell-based, Homo sapiens; settings: Homo sapiens, COLO-684
Description: SANGER: Inhibition of human COLO-684 cell growth in a cell viability assay.

RPMI-8866 = assay type: functional, cell-based, Homo sapiens; settings: Homo sapiens, RPMI-8866
Description: SANGER: Inhibition of human RPMI-8866 cell growth in a cell viability assay.

KM12 = assay type: functional, cell-based, Homo sapiens; settings: Homo sapiens, KM12;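 further: KM12 cell growth inhibition, read out with a cell viability assay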
Description: SANGER: Inhibition of human KM12 cell growth in a cell viability assay.

NCI-H1417 = assay type: functional, cell-based, Homo sapiens; settings: Homo sapiens, NCI-H1417;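 further: human NCI-H1417 cells, growth inhibition determined with a cell viability readout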
Description: SANGER: Inhibition of human NCI-H1417 cell growth in a cell viability assay.

HCC2157 = assay type: functional, cell-based, Homo sapiens; settings: Homo sapiens, HCC2157;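 further: growth inhibition of the cancer cell line, read out as cell viability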
Description: SANGER: Inhibition of human HCC2157 cell growth in a cell viability assay.

MFM-223 = assay type: functional, cell-based, Homo sapiens; settings: Homo sapiens, MFM-223
Description: SANGER: Inhibition of human MFM-223 cell growth in a cell viability assay.

SK-MEL-1 = assay type: functional, cell-based, Homo sapiens; settings: Homo sapiens, SK-MEL-1;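 further: growth inhibition of human SK-MEL-1 cells, read out by a cell viability assay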
Description: SANGER: Inhibition of human SK-MEL-1 cell growth in a cell viability assay.

HCE-T = assay type: functional, cell-based, Homo sapiens; settings: Homo sapiens, HCE-T;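 further: cell viability assay read-out, reporting inhibition of HCE-T cell growth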
Description: SANGER: Inhibition of human HCE-T cell growth in a cell viability assay.

LB831-BLC = assay type: functional, cell-based, Homo sapiens; settings: Homo sapiens, LB831-BLC;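 further: growth inhibition of LB831-BLC cells, read out with a cell viability assay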
Description: SANGER: Inhibition of human LB831-BLC cell growth in a cell viability assay.

GB-1 = assay type: functional, cell-based, Homo sapiens; settings: Homo sapiens, GB-1;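 further: growth of GB-1 cells judged by a viability assay, IC50 marks the concentration inhibiting growth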
Description: SANGER: Inhibition of human GB-1 cell growth in a cell viability assay.

KARPAS-299 = assay type: functional, cell-based, Homo sapiens; settings: Homo sapiens, KARPAS-299
Description: SANGER: Inhibition of human KARPAS-299 cell growth in a cell viability assay.

Mo = assay type: functional, cell-based, Homo sapiens; settings: Homo sapiens, Mo
Description: SANGER: Inhibition of human Mo-T cell growth in a cell viability assay.

SK-N-FI = assay type: functional, cell-based, Homo sapiens; settings: Homo sapiens, SK-N-FI;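 further: cell viability assay measuring growth inhibition of human SK-N-FI cells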
Description: SANGER: Inhibition of human SK-N-FI cell growth in a cell viability assay.

NEC8 = assay type: functional, cell-based, Homo sapiens; settings: Homo sapiens, NEC8;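 further: growth inhibition of human NEC8 cells, read out by a cell viability assay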
Description: SANGER: Inhibition of human NEC8 cell growth in a cell viability assay.

ATN-1 = assay type: functional, cell-based, Homo sapiens; settings: Homo sapiens, ATN-1;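 further: growth inhibition of human ATN-1 cells, read out with a cell viability assay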
Description: SANGER: Inhibition of human ATN-1 cell growth in a cell viability assay.

SF-539 = assay type: functional, cell-based, Homo sapiens; settings: Homo sapiens, SF-539;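 further: Read-out is a cell viability assay, with IC50 reflecting inhibition of cell growth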
Description: SANGER: Inhibition of human SF539 cell growth in a cell viability assay.

SNU1 = assay type: functional, cell-based, Homo sapiens; settings: Homo sapiens, SNU1;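 further: growth inhibition of human NCI-SNU-1 cells, measured with a cell viability assay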
Description: SANGER: Inhibition of human NCI-SNU-1 cell growth in a cell viability assay.

EOL1 = assay type: functional, cell-based, Homo sapiens; settings: Homo sapiens, EOL1;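 further: growth inhibition of EoL-1 cells, read out by a cell viability assay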
Description: SANGER: Inhibition of human EoL-1-cell cell growth in a cell viability assay.

CAS-1 = assay type: functional, cell-based, Homo sapiens; settings: Homo sapiens, CAS-1;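 further: growth inhibition of CAS-1 cells, measured with a cell viability assay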
Description: SANGER: Inhibition of human CAS-1 cell growth in a cell viability assay.

KM-H2 = assay type: functional, cell-based, Homo sapiens; settings: Homo sapiens, KM-H2;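 further: growth inhibition of KM-H2 cells, read out by a cell viability assay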
Description: SANGER: Inhibition of human KM-H2 cell growth in a cell viability assay.

HCC2218 = assay type: functional, cell-based, Homo sapiens; settings: Homo sapiens, HCC2218;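 further: cell viability assay read-out, with IC50 given as the concentration that inhibits growth of the cell line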
Description: SANGER: Inhibition of human HCC2218 cell growth in a cell viability assay.

KU812 cell line = assay type: functional, cell-based, Homo sapiens; settings: Homo sapiens, KU812;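 further: growth inhibition of KU812 cells, read out with a cell viability assay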
Description: SANGER: Inhibition of human KU812 cell growth in a cell viability assay.

TGBC1TKB = assay type: functional, cell-based, Homo sapiens; settings: Homo sapiens, TGBC1TKB;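 further: growth inhibition of TGBC1TKB cells, read out by a cell viability assay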
Description: SANGER: Inhibition of human TGBC1TKB cell growth in a cell viability assay.

LB996-RCC = assay type: functional, cell-based, Homo sapiens; settings: Homo sapiens, LB996-RCC
Description: SANGER: Inhibition of human LB996-RCC cell growth in a cell viability assay.

EW-16 = assay type: functional, cell-based, Homo sapiens; settings: Homo sapiens, EW-16;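 further: growth inhibition of human EW-16 cells, read out as cell viability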
Description: SANGER: Inhibition of human EW-16 cell growth in a cell viability assay.

COc1cc(N2CCC(N3CCN(C)CC3)CC2)ccc1Nc1ncc(Cl)c(Nc2ccccc2S(=O)(=O)C(C)C)n1 [TAE-684]
IC50 (KLE): > 2000 nM
IC50 (J-RT3-T3-5): > 2000 nM
IC50 (D-502MG): > 2000 nM
IC50 (LB2241-RCC): 988 nM
IC50 (DEL): < 7.81 nM
IC50 (MZ7-mel): > 2000 nM
IC50 (TE-5): > 2000 nM
IC50 697: 432 nM
IC50 (SHP77): > 2000 nM
IC50 (KNS-42): > 2000 nM
IC50 (CCRF-CEM): > 2000 nM
IC50 (NCI-H1304): 1130 nM
IC50 (SNU-C2B): > 2000 nM
IC50 (NCI-H2171): > 2000 nM
IC50 (ES8): 750 nM
IC50 (SCC-15): > 2000 nM
IC50 (LS-513): > 2000 nM
IC50 (L-428): > 2000 nM
IC50 (SW872): 567 nM
IC50 (OVCAR-4): 406 nM
IC50 (SK-UT-1): > 2000 nM
IC50 (SW982): 165 nM
IC50 (KARPAS-45): 843 nM
IC50 (KGN): 662 nM
IC50 (COLO-829): > 2000 nM
IC50 (COLO-684): > 2000 nM
IC50 (RPMI-8866): > 2000 nM
IC50 (KM12): > 2000 nM
IC50 (NCI-H1417): > 2000 nM
IC50 (HCC2157): 1470 nM
IC50 (MFM-223): > 2000 nM
IC50 (SK-MEL-1): > 2000 nM
IC50 (HCE-T): 1090 nM
IC50 (LB831-BLC): 550 nM
IC50 (GB-1): 389 nM
IC50 (KARPAS-299): 23.8 nM
IC50 (Mo): > 2000 nM
IC50 (SK-N-FI): > 2000 nM
IC50 (NEC8): 413 nM
IC50 (ATN-1): 333 nM
IC50 (SF-539): < 7.81 nM
IC50 (SNU1): > 2000 nM
IC50 (EOL1): > 2000 nM
IC50 (CAS-1): 1980 nM
IC50 (KM-H2): > 2000 nM
IC50 (HCC2218): > 2000 nM
IC50 (KU812 cell line): > 2000 nM
IC50 (TGBC1TKB): > 2000 nM
IC50 (LB996-RCC): 694 nM
IC50 (EW-16): 106 nM
